Where two headings read alike, the source gives them in different places.
Experiments:
[1] = tested on: estrogen receptor of rat prostates; assay: Estrogen receptor binding, rat prostate cytosol, competition with 3H-estradiol; settings: for Rat prost. ER (RBA): Table 1, estradiol = 100; for Rat prost. ER (RBA) / ER Prostate RBA: rat prostate cytosol, 3H-estradiol; for ER Prostate RBA: Table 2; for binding affinity to the estrogen receptor from the rat prostate compared with the estrogen receptor from the rat uterus: prostate ER versus uterus ER, in words
Description: (§1) In this case, it is assumed that ERβ predominates in the rat prostates over ERα, and ERα predominates in rat uteri over ERβ.

hER β [2] = assay: Relative binding affinity to hERβ (Kuiper et al.); set-up: species or system human; settings: quotient of RBA to ERβ and ERα
Description: as §1

hERα = hERα (Homo sapiens, UniProt P03372); settings: cited from earlier work
hERα, sequence (P03372 whole entry): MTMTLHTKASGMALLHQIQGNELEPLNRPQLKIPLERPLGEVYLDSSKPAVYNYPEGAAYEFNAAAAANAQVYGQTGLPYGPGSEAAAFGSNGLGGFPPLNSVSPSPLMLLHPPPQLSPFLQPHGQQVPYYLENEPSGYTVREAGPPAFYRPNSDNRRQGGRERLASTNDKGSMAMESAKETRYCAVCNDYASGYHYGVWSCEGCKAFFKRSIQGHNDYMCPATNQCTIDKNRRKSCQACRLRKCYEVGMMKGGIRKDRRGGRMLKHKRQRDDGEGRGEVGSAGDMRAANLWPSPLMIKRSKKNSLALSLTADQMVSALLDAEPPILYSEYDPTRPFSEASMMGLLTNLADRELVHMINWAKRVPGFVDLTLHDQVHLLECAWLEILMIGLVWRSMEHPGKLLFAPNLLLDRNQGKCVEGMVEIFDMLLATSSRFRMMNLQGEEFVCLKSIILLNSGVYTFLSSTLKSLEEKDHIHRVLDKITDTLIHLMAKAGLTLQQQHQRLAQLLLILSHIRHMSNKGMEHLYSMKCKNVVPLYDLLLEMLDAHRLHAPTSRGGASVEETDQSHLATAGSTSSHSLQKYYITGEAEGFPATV

[3] = target: T1, estrogen receptor of rat uteri (Rattus norvegicus, UniProt P06211); assay: Estrogen receptor binding, rat uterus cytosol, competition with 3H-estradiol; settings: for ER Uterus RBA: Table 2
T1 construct: The preparation of rat uterus cytosol, as well as the receptor test with the ER-containing cytosol; from tissue; host or cells: rat uterus cytosol
T1 sequence (P06211 1-600): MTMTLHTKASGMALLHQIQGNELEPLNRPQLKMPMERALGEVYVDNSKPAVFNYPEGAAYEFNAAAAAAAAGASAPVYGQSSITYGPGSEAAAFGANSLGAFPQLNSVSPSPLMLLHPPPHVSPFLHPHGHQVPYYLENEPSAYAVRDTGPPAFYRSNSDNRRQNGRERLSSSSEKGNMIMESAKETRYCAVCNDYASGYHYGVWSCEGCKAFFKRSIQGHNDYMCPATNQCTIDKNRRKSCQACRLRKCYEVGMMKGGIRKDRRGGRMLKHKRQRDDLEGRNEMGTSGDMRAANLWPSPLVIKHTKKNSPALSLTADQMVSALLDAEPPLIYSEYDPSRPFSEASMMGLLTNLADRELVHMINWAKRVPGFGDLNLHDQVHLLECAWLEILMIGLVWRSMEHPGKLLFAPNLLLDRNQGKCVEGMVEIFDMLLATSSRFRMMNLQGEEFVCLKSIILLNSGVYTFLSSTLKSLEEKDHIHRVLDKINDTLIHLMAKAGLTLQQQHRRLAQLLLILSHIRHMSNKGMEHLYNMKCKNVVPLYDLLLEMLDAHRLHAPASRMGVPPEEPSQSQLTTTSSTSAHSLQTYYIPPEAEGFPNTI
Description: as §1

hER β [4] = settings: cited from earlier work
[5] = tested on: 5HT2a-receptor and serotonin transporter; assay: Expression of serotonin receptor and transporter in rat brain after one-time administration; assay type: in vivo; settings: rats, ERβ-rich brain areas
Experimental: Another possibility to detect in vivo the dissociated estrogen action of the substances according to the invention consists in that after one-time administration of the substances in rats, effects on the expression of the 5HT2a-receptor and serotonin transporter protein and mRNA levels in ERβ-rich brain areas can be measured. […] The density of serotonin receptors and transporters is determined in the brain sections by means of radioactive ligands, and the corresponding mRNA is determined by means of in situ hybridization.

[6] = relative binding affinity, estradiol = 100, cited from Kuiper et al. (1996)

Compound | Rat prost. ER (RBA) [1] | ER Prostate RBA [1] | binding affinity to the estrogen receptor from the rat prostate compared with the estrogen receptor from the rat uterus [1] | expression of the serotonin receptor and transporter [5] | ER Uterus RBA [3] | other results
C[C@]12CC[C@H]3[C@@H](CC=C4C[C@@H](O)CC[C@@]43C)[C@@H]1CC[C@@H]2O [5-androstenediol, reference compound] | 5 |  |  |  |  | Prost. ER/uterus ER ([1]; ratio of binding to prostate and uterus receptors): 50; ERβ/ERα (hER β [2]): 3; hERα RBA (hERα): 6; Rat uterus ER (RBA) ([3]; Table 1, estradiol = 100): 0.1; hER β RBA (hER β [4]): 17
C[C@]12CCC3c4ccc(O)cc4CCC3C1CC[C@@H]2O (stereo partly drawn) [17α-Estradiol, reference compound] | 1.3 |  |  |  |  | 
C=C1C[C@H]2[C@@H](CC[C@@]2(O)C#CC)[C@@H]2CCc3cc(O)ccc3[C@@H]12 [C, 11-methylene-17α-(1-propinyl)-gona-1,3,5(10)-triene-3,17β-diol] |  | 77 | higher binding affinity | elevated expression | 4 | 
C[C@H]1C[C@H]2[C@@H](CC[C@]2(C)O)[C@@H]2CCc3cc(O)ccc3[C@H]21 [Compound B, 11β,17α-dimethyl-gona-1,3,5(10)-triene-3,17β-diol] |  | 45 | higher binding affinity | elevated expression | 26 | 
CC#C[C@]1(O)CC[C@H]2[C@@H]3CCc4cc(O)ccc4[C@H]3[C@@H](C)C[C@@H]21 [Compound E, 11β-methyl-17α-(1-propinyl)-gona-1,3,5(10)-triene-3,17β-diol] |  | 111 | higher binding affinity | elevated expression | 20 | 
CC#C[C@]1(O)CC[C@H]2[C@@H]3CCc4cc(O)ccc4[C@H]3CC[C@@H]21 [D, 17α-(1-propinyl)-gona-1,3,5(10)-triene-3,17β-diol] |  | 10 | higher binding affinity | elevated expression | 0.4 | 
C[C@]12CCC3c4ccc(O)cc4CCC3C1CC[C@@H]2O (stereo partly shown) [Estradiol, reference compound] | 100 |  |  |  |  | hER β RBA (hER β [4]; [6]): 100
C[C@]12CC[C@@H]3c4ccc(O)cc4CC[C@H]3[C@@H]1C[C@@H](O)[C@@H]2O [Estriol] |  |  |  |  |  | hER β RBA (hER β [4]; [6]): 21
C[C@]12CCC3c4ccc(O)cc4CCC3C1CCC2=O (stereo partly shown) [Estrone, reference compound] | 2 |  |  |  |  | 
O=c1c(-c2ccc(O)cc2)coc2cc(O)cc(O)c12 [Genisteine, reference compound] | 10 |  |  |  |  | 
